Biological target: T1, Histone-lysine N-methyltransferase EHMT1 (Homo sapiens) (UniProt Q9H9B1)
T1 sequence (whole entry): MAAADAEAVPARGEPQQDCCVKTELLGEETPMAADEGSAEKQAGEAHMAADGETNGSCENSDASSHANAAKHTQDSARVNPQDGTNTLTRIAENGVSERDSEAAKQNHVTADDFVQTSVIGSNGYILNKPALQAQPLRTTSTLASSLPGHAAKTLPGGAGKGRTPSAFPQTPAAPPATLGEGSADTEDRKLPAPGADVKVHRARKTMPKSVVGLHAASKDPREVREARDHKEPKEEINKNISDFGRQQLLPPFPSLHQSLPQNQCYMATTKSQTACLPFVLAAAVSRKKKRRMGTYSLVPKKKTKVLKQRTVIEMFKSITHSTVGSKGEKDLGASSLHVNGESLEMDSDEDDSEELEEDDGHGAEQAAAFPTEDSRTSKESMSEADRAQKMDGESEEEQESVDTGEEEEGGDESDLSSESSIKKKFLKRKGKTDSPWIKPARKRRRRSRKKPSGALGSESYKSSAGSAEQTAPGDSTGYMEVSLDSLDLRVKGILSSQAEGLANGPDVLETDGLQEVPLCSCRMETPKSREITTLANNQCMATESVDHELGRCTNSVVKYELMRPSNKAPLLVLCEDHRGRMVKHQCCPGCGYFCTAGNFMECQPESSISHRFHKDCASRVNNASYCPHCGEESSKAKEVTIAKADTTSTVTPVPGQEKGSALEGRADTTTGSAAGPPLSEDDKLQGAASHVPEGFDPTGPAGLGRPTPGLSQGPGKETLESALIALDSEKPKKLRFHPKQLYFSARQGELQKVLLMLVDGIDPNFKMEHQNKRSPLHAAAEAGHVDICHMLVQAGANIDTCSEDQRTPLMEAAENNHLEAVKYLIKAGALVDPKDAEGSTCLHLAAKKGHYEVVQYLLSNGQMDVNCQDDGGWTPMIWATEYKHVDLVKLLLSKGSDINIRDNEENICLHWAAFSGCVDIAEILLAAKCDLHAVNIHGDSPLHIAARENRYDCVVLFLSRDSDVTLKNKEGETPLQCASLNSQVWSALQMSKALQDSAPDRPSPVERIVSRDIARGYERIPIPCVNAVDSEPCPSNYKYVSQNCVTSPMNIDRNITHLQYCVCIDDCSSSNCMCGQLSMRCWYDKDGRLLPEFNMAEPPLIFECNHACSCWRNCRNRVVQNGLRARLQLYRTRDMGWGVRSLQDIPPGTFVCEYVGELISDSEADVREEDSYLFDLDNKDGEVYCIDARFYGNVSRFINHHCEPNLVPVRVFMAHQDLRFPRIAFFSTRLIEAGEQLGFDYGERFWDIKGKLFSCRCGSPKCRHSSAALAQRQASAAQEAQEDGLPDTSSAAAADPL
Assay: Inhibition of EHMT1 (unknown origin) at 10 uM by HMT assay

`Nc1ncnc2c1ncn2[C@@H]1O[C@H](CSCC[C@H](N)C(=O)NCc2cc(-c3ccccc3)[nH]n2)[C@@H](O)[C@H]1O` gave an inhibition of 24%.
